According to PMC10053925, “Virtual Screening of Novel 24-Dehydroxysterol Reductase (DHCR24) Inhibitors and the Biological Evaluation of Irbesartan in Cholesterol-Lowering Effect” (Molecules, 2023):

Legend:
[1] = target: T1, 3β-hydroxysterol-Δ(24)-reductase (DHCR24) (Homo sapiens, UniProt Q15392); experiment: in vitro turnover to cholesterol by immunoprecipitated DHCR24, HPLC; assay type: biochemical
T1 construct: DHCR24 immunoprecipitated from HepG2 cells infected with Ad-cmv-DHCR24 (antibody-DHCR24 complex)
T1 sequence (Q15392 23-516): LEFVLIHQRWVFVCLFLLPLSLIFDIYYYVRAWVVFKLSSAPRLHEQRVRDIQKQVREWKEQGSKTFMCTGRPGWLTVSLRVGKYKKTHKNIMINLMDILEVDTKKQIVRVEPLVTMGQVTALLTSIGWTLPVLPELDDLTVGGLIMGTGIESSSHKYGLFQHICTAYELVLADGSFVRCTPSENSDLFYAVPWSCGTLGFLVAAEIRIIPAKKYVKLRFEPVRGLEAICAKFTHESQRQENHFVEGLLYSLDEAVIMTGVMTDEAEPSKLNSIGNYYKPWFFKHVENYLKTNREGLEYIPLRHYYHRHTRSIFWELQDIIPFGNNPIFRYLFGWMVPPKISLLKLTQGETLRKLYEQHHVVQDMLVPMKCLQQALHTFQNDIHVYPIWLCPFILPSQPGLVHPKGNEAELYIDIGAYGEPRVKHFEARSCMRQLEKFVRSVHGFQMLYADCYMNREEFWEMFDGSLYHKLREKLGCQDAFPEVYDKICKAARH

[2] = target: T1, 3β-hydroxysterol-Δ(24)-reductase (DHCR24); experiment: immune complex-activity assay; HPLC of desmosterol to cholesterol conversion; assay type: biochemical

IC50 [2] [nM]	SMILES	in vitro turnover to cholesterol by immunoprecipitated DHCR24, HPLC [1]
–	CC(C)=CCC[C@@H](C)[C@H]1CC[C@H]2[C@@H]3CC=C4C[C@@H](O)CC[C@]4(C)[C@H]3CC[C@]12C [DES, desmosterol]	desmosterol in the system can be catalyzed into cholesterol only in the presence of the DHCR24 enzyme
602	CCCCC1=NC2(CCCC2)C(=O)N1Cc1ccc(-c2ccccc2-c2nnn[nH]2)cc1 [IRB, Irbesartan]	–
